smiles,measurement,setting,value
CCO.C[C@H]1c2cccc(O)c2C(O)=C2C(=O)[C@]3(O)C(O)=C(C(N)=O)C(=O)[C@@H](N(C)C)[C@@H]3[C@@H](O)[C@@H]21.C[C@H]1c2cccc(O)c2C(O)=C2C(=O)[C@]3(O)C(O)=C(C(N)=O)C(=O)[C@@H](N(C)C)[C@@H]3[C@@H](O)[C@@H]21.Cl.Cl.O,solubility (mole fraction),"in ethanol, 278.15 K",0.00199
same,solubility (mole fraction),"in ethanol, 283.15 K",0.00222
same,solubility (mole fraction),"in ethanol, 288.15 K",0.00248
same,solubility (mole fraction),"in ethanol, 293.15 K",0.00278
same,solubility (mole fraction),"in ethanol, 298.15 K",0.00313
same,solubility (mole fraction),"in ethanol, 302.85 K",0.00327
same,solubility (mole fraction),"in ethanol, 307.25 K",0.00364
same,solubility (mole fraction),"in ethanol, 312.95 K",0.00409
same,solubility (mole fraction),"in ethanol, 318.15 K",0.0047
same,solubility (mole fraction),"in ethanol, 323.05 K",0.00522
same,solubility (mole fraction),"in methanol, 278.15 K",0.0138
same,solubility (mole fraction),"in methanol, 283.15 K",0.015
same,solubility (mole fraction),"in methanol, 288.15 K",0.016
same,solubility (mole fraction),"in methanol, 293.15 K",0.0174
same,solubility (mole fraction),"in methanol, 298.15 K",0.0198
same,solubility (mole fraction),"in methanol, 302.85 K",0.0251
same,solubility (mole fraction),"in methanol, 307.25 K",0.0292
same,solubility (mole fraction),"in methanol, 312.95 K",0.0332
same,solubility (mole fraction),"in methanol, 318.15 K",0.0402
same,solubility (mole fraction),"in methanol, 323.05 K",0.044
same,solubility (mole fraction),"in n-propanol, 278.15 K",0.000862
same,solubility (mole fraction),"in n-propanol, 283.15 K",0.00101
same,solubility (mole fraction),"in n-propanol, 288.15 K",0.00111
same,solubility (mole fraction),"in n-propanol, 293.15 K",0.00133
same,solubility (mole fraction),"in n-propanol, 298.15 K",0.00151
same,solubility (mole fraction),"in n-propanol, 303.15 K",0.00174
same,solubility (mole fraction),"in n-propanol, 309.75 K",0.00222
same,solubility (mole fraction),"in n-propanol, 316.65 K",0.00273
same,solubility (mole fraction),"in n-propanol, 322.55 K",0.00351
same,solubility (mole fraction),"in water, 277.55 K",0.00128
same,solubility (mole fraction),"in water, 283.05 K",0.00132
same,solubility (mole fraction),"in water, 287.85 K",0.0014
same,solubility (mole fraction),"in water, 292.95 K",0.00164
same,solubility (mole fraction),"in water, 299.15 K",0.00214
same,solubility (mole fraction),"in water, 302.35 K",0.00254
same,solubility (mole fraction),"in water, 307.45 K",0.00306
same,solubility (mole fraction),"in water, 313.25 K",0.00405
same,solubility (mole fraction),"in water, 317.85 K",0.00534
same,solubility (mole fraction),"in water, 323.05 K",0.00647
